Read-outs that look alike come from different tables or passages of the source. Bridge positions count the residues as written; N and C are the ends. Square brackets hold non-standard residues; d marks the D form. Peptide text beside a SMILES is read from it. Orn = NCCC[C@H](N)C(=O)O; Mpa = O=C(O)CCS
What was measured:
preterm labor = conditions: cited from earlier work; for Onsef of action: clinical dose per Table 1; for Delay in delivery for 48 hrs: clinical treatment of preterm labor
[1] = test system: myometrial smooth muscle cells; experiment: CBiO Assay (contraction of magnetically 3D bioprinted rings); format: cell-based, human
Procedure: We developed an assay, the CBiO Assay (contractility BiO Assay) to mimic uterine contractility in vitro. The basis of this assay is one in which cells are magnetically 3D bioprinted into 3D rings (e.g., 0.125″ outer diameter, 0.0625″ inner diameter) in 384-well plates. After printing, the magnetic field is removed, and these rings contract immediately (<24 h), as cells within the ring contract, rearrange, and compact the ring.
Along with this CBiO assay, a mobile device-based imaging system (n3Dock) was used to image and measure whole plates of rings (FIG. 3). This imaging system is driven by an iPod Touch (Apple Computer, CA) that was programmed to automatically image plates at regular intervals (≧1 s) for the length of the experiment using a freely available app for download (Experimental Assistant, Nano3D Biosciences). Using the n3Dock to image rings is possible given the fine camera resolution of the iPod (5 MP, resolution=250 μm) (Timm, 2013), and the brown color of the ring imparted by the NS that provides contrast against the lightness of the surrounding media. As a result, the iPod captures images of whole plates in a compact dock that fits within most standard incubators. Of course, any smart phone or pad or tablet equipped with a camera could be used herein.
From the same tissue, cells were grown in vitro as monolayer cultures and then harvested. […]

myometrial strips = experiment: Wire myography of ex vivo myometrial strips in organ bath; set-up: species or system human; conditions: 1 μM-1 mM
Procedure: Ex vivo tissue was also tested for comparison to the CBiO Assay. Uterine biopsies obtained from cesarean sections were cut into myometrial strips (10×2×2 mm) mounted in an organ chamber system bath (10 mL) containing Kreb's buffer maintained at 37° C. and bubbled with 5% CO2/95% O2 to maintain the pH at 7.4. Eight uterine strips were obtained form each individual biopsy. The strips were equilibrated for 1 h starting from a resting tension of 1 g and spontaneous uterine contractility was stabilized for isometric tension recording. […] Two uterine strips were exposed to each tocolytic drug, thereby conducting duplicate experiments for each drug. […] All tocolytic doses used were based from previous human myometrial contractility studies. […] For the ex vivo tissue contractile activity, myometrial strips were mounted in a myograph organ bath system. […] The contractile inhibitory response was the area change at 5 h for the CBiO Assay, and the AUC for myography (FIG. 7). The contractile inhibitory response (CIR) in this experiment was defined as the percent change in ring image pixels before and after drug exposure. Thus, FIG. 7 reports a change in size rather than a rate. However, rates can be reported if desired.

[2] = cited from earlier work

Structure (SMILES)	Onsef of action (preterm labor; as recommended by the manufacturer) [h]	Delay in delivery for 48 hrs (preterm labor)	IND/NIF preference ratio (PR) ([1]; Patient 1, area change at 5 h)	IND/NIF preference ratio (PR) ([1]; Patient 2, area change at 5 h)	IND/NIF preference ratio (PR) (myometrial strips; Patient 1, AUC)	IND/NIF preference ratio (PR) (myometrial strips; Patient 2, AUC)	Cmax (Peak plasma concentration) ([2]; clinical dose 50 mg oral, then 25 mg every 6 hrs, as recommended by the manufacturer) [µg/mL]	Onsef of action (preterm labor) [hr^63]	Cmax (Peak plasma concentration) ([2]; clinical dose per Table 1) [ng/ml^63]
COc1ccc2c(c1)c(CC(=O)O)c(C)n2C(=O)c1ccc(Cl)cc1 [Indomethacin]	2	90-94%^58-61	0.75	0.97	0.48	0.92	2		
CCOc1ccc(C[C@H]2NC(=O)CCSSC[C@@H](C(=O)N3CCC[C@H]3C(=O)N[C@@H](CCCN)C(=O)NCC(N)=O)NC(=O)[C@H](CC(N)=O)NC(=O)[C@H]([C@@H](C)O)NC(=O)[C@H]([C@@H](C)CC)NC2=O)cc1 [Atosiban] ([Mpa][dY](Et)ITNCP[Orn]G-NH2; disulfide 1-6)		93%^64						1	442
